Results as given in article PMC13183915, “A platinum butterfly effect: small changes turn an anticancer drug into a non-toxic metalloantibiotic with in vivo efficacy” (npj Antimicrobials and Resistance, 2026).
Converted amounts (≈) assume the structure as drawn. “And” between values parts separate entries of the source, which are not always exact repeats. Identical values can stand only once.

Assays:
S. aureus ATCC 29213 [1] = assay: Murine superficial skin infection model; assay type: in vivo; details: topical 2% cream, twice daily for 4 days, Swiss mice
Protocol: The in vivo efficacy of Pt1 was determined in a superficial skin infection model. Briefly, male Swiss mice, 4–6 weeks old, weighing ∼22–25 g, were used throughout the study. Mice were caged alone in an individually vented cage (IVC) to check cross-contamination and to maintain aseptic conditions throughout the experiment. Ketamine and xylazine were prepared in distilled water, 40 mg/kg and 8 mg/kg of body weight, respectively, and injected intraperitoneally (IP) as a mixture of 100 μL in each mouse for anaesthesia. Then, we proceeded with the removal of fur by applying depilatory cream. The area was cleaned with sterile distilled water. Approximately 2 cm^2 of skin area was scratched until it became visibly reddened and glistening without any bleeding. For bacterial infection, a 10 μL droplet containing 10^7 CFU/mL of S. aureus ATCC 29213 was applied to the reddened area of skin. To confirm the infection, post 4 h, untreated mice were sacrificed, skin homogenized, and various dilutions of the treatment groups (6 mice per group) were plated on TSA plates. […] Henceforth, the drug regimen was comprised of twice daily application (in the morning and the evening, with an 8 h interval) for 4 days. Control mice were regularly treated with 25–30 mg each of 2% fusidic acid (LEO Pharma, Ballerup, Denmark), 2% infuzide, and base (vehicle). […]

[2] = system: methicillin-sensitive Staphylococcus aureus (MSSA), clinical isolate; assay: MIC assay, MSSA clinical isolate; assay type: cell-based; details: Staphylococcus aureus, MSSA
[3] = system: methicillin-resistant S. aureus (MRSA) COL; assay: MIC assay, MRSA COL; assay type: cell-based, Staphylococcus aureus; details: Staphylococcus aureus, MRSA
Bacillus subtilis MW168 = assay: MIC assay, B. subtilis MW168; assay type: cell-based; details: Bacillus subtilis, MW168
MSSA ATCC 29213 = assay: Broth microdilution MIC, MSSA ATCC 29213; assay type: cell-based, S. aureus; details: Staphylococcus aureus
Protocol: (§1) The data is given in supporting information (Table S5). Before starting the experiment, a single colony was picked from MHA plate, inoculated in MHBII and incubated overnight at 37 °C with shaking for 18–24 h to get the starter culture. Antibiotic susceptibility testing was conducted according to the CLSI (Clinical & Laboratory Standards Institute) guidelines using the broth microdilution assay. 10 mg/mL stock solutions of test compounds were prepared in DMSO. Bacterial cultures were inoculated in MHBII and optical density (OD) was measured at 600 nm, followed by dilution to achieve ~10^6 CFU/mL. The compounds were tested from 64 to 0.5 mg/L in two-fold serial diluted fashion with 2.5 μL of each concentration added to well of a 96-well round bottom microtiter plate. Later, 97.5 μL of bacterial suspension was added to each well containing either test compound or appropriate controls. […] The MIC is defined as the lowest concentration of the compound at which there is absence of visible growth. For each test compound, MIC determinations were carried out independently three times using duplicate samples.

MRSA NRS 100 = assay: Broth microdilution MIC, MRSA NRS 100; assay type: cell-based, S. aureus; details: Staphylococcus aureus
Protocol: as §1

MRSA NRS 119 = assay: Broth microdilution MIC, MRSA NRS 119; assay type: cell-based, S. aureus; details: Staphylococcus aureus
Protocol: as §1

MRSA NRS 129 = assay: Broth microdilution MIC, MRSA NRS 129; assay type: cell-based, S. aureus; details: Staphylococcus aureus
Protocol: as §1

MRSA NRS 186 = assay: Broth microdilution MIC, MRSA NRS 186; assay type: cell-based, S. aureus; details: Staphylococcus aureus
Protocol: as §1

MRSA NRS 191 = assay: Broth microdilution MIC, MRSA NRS 191; assay type: cell-based, S. aureus; details: Staphylococcus aureus
Protocol: as §1

MRSA NRS 192 = assay: Broth microdilution MIC, MRSA NRS 192; assay type: cell-based, S. aureus; details: Staphylococcus aureus
Protocol: as §1

MRSA NRS 193 = assay: Broth microdilution MIC, MRSA NRS 193; assay type: cell-based, S. aureus; details: Staphylococcus aureus
Protocol: as §1

MRSA NRS 194 = assay: Broth microdilution MIC, MRSA NRS 194; assay type: cell-based, S. aureus; details: Staphylococcus aureus
Protocol: as §1

MRSA NRS 198 = assay: Broth microdilution MIC, MRSA NRS 198; assay type: cell-based, S. aureus; details: Staphylococcus aureus
Protocol: as §1

VRSA VRS 1 = assay: Broth microdilution MIC, VRSA VRS 1; assay type: cell-based, S. aureus; details: Staphylococcus aureus, VRSA
Protocol: as §1

VRSA VRS 4 = assay: Broth microdilution MIC, VRSA VRS 4; assay type: cell-based, S. aureus; details: Staphylococcus aureus, VRSA
Protocol: as §1

VRSA VRS 12 = assay: Broth microdilution MIC, VRSA VRS 12; assay type: cell-based, S. aureus; details: Staphylococcus aureus, VRSA
Protocol: as §1

S. aureus ATCC 29213 [4] = assay: Drug interaction study (chequerboard assay); assay type: cell-based
Protocol: All compounds were freshly prepared for the experiment. […] Following incubation, the fractional inhibitory concentration index (FICI) was calculated with the formula FICI = […], whereby FICA = MIC of drug A in combination/MIC of drug A alone and FICB = MIC of drug B in combination/MIC of drug B alone. A drug combination is considered synergistic when ∑FICI is ≤0.5, indifferent when ∑FICI is >0.5 to 4, and antagonistic when ∑FICI is >4.

[5] = system: 36th Passage S.aureus ATCC 29213 in the presence of Pt-1; assay: microbe, parasite or virus in culture; assay type: cell-based; details: Staphylococcus aureus, ATCC29213
Protocol: The MICs of the passaged cultures were determined every 3 days and compared to that of wild type S. aureus ATCC 29213. MIC changes were recorded for 36 passages.

S. aureus ATCC 29213 [6] = assay: Post antibiotic effect (PAE); assay type: cell-based; details: for Time for 1 log10 increase in bacterial cfu count: 1 h exposure
Protocol: Post antibiotic effect (PAE) was determined as follows. […] Following incubation, cultures were centrifuged and washed twice with pre-warmed MHBII to remove any traces of antibiotics. Finally, cells were resuspended in drug-free MHBII and incubated further at 37 °C. Samples were taken every 1 h, serially diluted, and plated on tryptic soy agar (TSA) for enumeration of CFU. […] CFU observed immediately after the removal of the drug, and C in a similarly treated drug-free control.

CC(=O)O[C@H]1C[C@@]2(C)[C@@H](C[C@@H](O)[C@H]3[C@@]4(C)CC[C@@H](O)[C@@H](C)[C@@H]4CC[C@@]32C)/C1=C(\CCC=C(C)C)C(=O)O [fusidic acid]
reduction in bacterial load compared to vehicle-treated group (S. aureus ATCC 29213 [1]): ~ 2.9 log10 CFU/g

CN[C@H](CC(C)C)C(=O)N[C@H]1C(=O)N[C@@H](CC(N)=O)C(=O)N[C@H]2C(=O)N[C@H]3C(=O)N[C@H](C(=O)N[C@H](C(=O)O)c4cc(O)cc(O)c4-c4cc3ccc4O)[C@H](O)c3ccc(c(Cl)c3)Oc3cc2cc(c3O[C@@H]2O[C@H](CO)[C@@H](O)[C@H](O)[C@H]2O[C@H]2C[C@](C)(N)[C@H](O)[C@H](C)O2)Oc2ccc(cc2Cl)[C@H]1O [Van, Vancomycin]
MIC [2]: 0.86 µM (≈ 1.25 µg/mL) | MIC [3]: 0.86 µM (≈ 1.25 µg/mL) | MIC (Bacillus subtilis MW168): < 0.22 µM | MIC (MSSA ATCC 29213): 1 µg/mL and 0.67 µM | MIC (MRSA NRS 100): 1.34 µM (≈ 1.94 µg/mL) | MIC (MRSA NRS 119): 1.34 µM (≈ 1.94 µg/mL) | MIC (MRSA NRS 129): 0.67 µM (≈ 0.971 µg/mL) | MIC (MRSA NRS 186): 0.67 µM (≈ 0.971 µg/mL) | MIC (MRSA NRS 191): 1.34 µM (≈ 1.94 µg/mL) | MIC (MRSA NRS 192): 0.67 to 1.34 µM (≈ 0.971 to 1.94 µg/mL) | MIC (MRSA NRS 193): 1.34 µM (≈ 1.94 µg/mL) | MIC (MRSA NRS 194): 0.67 µM (≈ 0.971 µg/mL) | MIC (MRSA NRS 198): 1.34 µM (≈ 1.94 µg/mL) | MIC (VRSA VRS 1): > 43.1 µM | MIC (VRSA VRS 4): > 43.1 µM | MIC (VRSA VRS 12): > 43.1 µM | MIC (S. aureus ATCC 29213 [4]; Staphylococcus aureus, ATCC29213): 1 µg/mL | FIC B (S. aureus ATCC 29213 [4]; antibiotic in combination with Pt1 / alone): 1 | FIC (FICA+FICB) (S. aureus ATCC 29213 [4]; combination with Pt1): 2 | Interference (S. aureus ATCC 29213 [4]; combination with Pt1, synergistic ≤0.5, indifferent >0.5 to 4, antagonistic >4): no interaction | MIC [5]: 1 µg/mL (≈ 0.69 µM) | PAE (S. aureus ATCC 29213 [6]; 1x MIC): ~ 2.5 h | Time for 1 log10 increase in bacterial cfu count (S. aureus ATCC 29213 [6]; 1x MIC): ~ 5 h | PAE (S. aureus ATCC 29213 [6]; 5x MIC): ~ 2.5 h | Time for 1 log10 increase in bacterial cfu count (S. aureus ATCC 29213 [6]; 5x MIC): ~ 5 h | Time for 1 log10 increase in bacterial cfu count (S. aureus ATCC 29213 [6]; 10x MIC): ~ 5 h | PAE (S. aureus ATCC 29213 [6]; 10x MIC, listed as Vancomycin): ~ 2.5 h | PAE (S. aureus ATCC 29213 [6]; 10x MIC, listed as vancomycin): 2.5 h
